Reference: PMC12305662, “Fragment-Based Development of Small Molecule Inhibitors Targeting Mycobacterium tuberculosis Cholesterol Metabolism” (Journal of Medicinal Chemistry, 2025)
Converted amounts (≈) assume the structure as drawn. Like-named read-outs stand apart in the source and are kept apart here.

Tests used:
CYP125 [1] = target: T1, CYP125 (Mycobacterium tuberculosis, UniProt P9WPP1); assay type: binding; details: for CYP125 Δλmax (nm) LS: low spin population, '-' = no LS maxima present; for Δλmax (nm) CYP125, fragment screen: fragment 1 mM, P450 4-6 µM, Soret shift relative to DMSO (393 nm)
CYP142 [2] = target: T2, CYP142 (Mycobacterium tuberculosis, UniProt P9WPL5); test: biochemical
CYP142 [3] = target: T2, CYP142; details: for CYP142 Δλmax (nm): compound 100 µM, P450 5 µM; for Δλmax (nm) CYP142, fragment screen: fragment 1 mM, P450 4-6 µM, relative to DMSO (418.5 nm)
CYP125 [4] = target: T1, CYP125; test: biochemical; assay type: binding; details: read-out: KD (μM) CYP125
Mtb H37Rv [5] = test: Depletion of intracellular ATP (BacTiter Glo), Mtb on cholesterol; assay type: cell-based, Mycobacterium tuberculosis; details: cholesterol as sole carbon source
CYP125 [6] = target: T1, CYP125; test: LC-MS substrate turnover assay (cholest-4-en-3-one); assay type: biochemical; details: for IC50: CYP125 0.5 μM, cholest-4-en-3-one 5 µM, LC-MS, read-out: CYP125A1 IC50; for Ki: estimated by Cheng-Prusoff, cholest-4-en-3-one Km CYP125 = 2.1 µM, read-out: CYP125A1 KI
Mtb H37Rv [7] = test: Extracellular Mtb growth on cholesterol, MABA MIC99; assay type: cell-based, Mycobacterium tuberculosis; details: Mycobacterium tuberculosis, H37RV, 336 h; cholesterol as sole carbon source; 2 weeks post-compound treatment; read-out: MABA-MIC99 (W2) H37Rv, cholesterol
Mtb CDC1551 [8] = test: Depletion of intracellular ATP (BacTiter Glo), Mtb on cholesterol; assay type: cell-based; details: Mycobacterium tuberculosis, cholesterol as sole carbon source
Mtb CDC1551 [9] = test: Extracellular Mtb growth on cholesterol, MABA MIC99; assay type: cell-based, Mycobacterium tuberculosis; details: Mycobacterium tuberculosis, CDC1551, 336 h; cholesterol as sole carbon source; 2 weeks post-compound treatment; read-out: MABA-MIC99 (W2) CDC1551, cholesterol
CYP143 = CYP143 (Mycobacterium tuberculosis, UniProt P9WPL3); details: fragment 1 mM, P450 4-6 µM; relative to DMSO (416 nm)
CYP121 = CYP121 (Mycobacterium tuberculosis, UniProt P9WPP7); details: fragment 1 mM, P450 4-6 µM; relative to DMSO (417 nm)
CYP144 = CYP144 (Mycobacterium tuberculosis, UniProt P9WPL1); details: fragment 1 mM, P450 4-6 µM; relative to DMSO (421 nm)
CYP124 = CYP124 (Mycobacterium tuberculosis, UniProt P9WPP3); details: fragment 1 mM, P450 4-6 µM; relative to DMSO (419 nm)
CYP126 = CYP126 (Mycobacterium tuberculosis, UniProt P9WPN9); details: fragment 1 mM, P450 4-6 µM; relative to DMSO (418 nm)
[10] = Mycobacterium tuberculosis, H37RV, 168 h, 1 week post-compound treatment, read-out: ATP-IC50 (W1) H37Rv, cholesterol
[11] = Mycobacterium tuberculosis, H37RV, 336 h, 2 weeks post-compound treatment, read-out: ATP-IC50 (W2) H37Rv, cholesterol
[12] = CDC1551, 168 h, 1 week post-compound treatment, read-out: ATP-IC50 (W1) CDC1551, cholesterol
[13] = CDC1551, 336 h, 2 weeks post-compound treatment, read-out: ATP-IC50 (W2) CDC1551, cholesterol

Sequence of CYP121 (P9WPP7 whole entry, the tested form may be a part): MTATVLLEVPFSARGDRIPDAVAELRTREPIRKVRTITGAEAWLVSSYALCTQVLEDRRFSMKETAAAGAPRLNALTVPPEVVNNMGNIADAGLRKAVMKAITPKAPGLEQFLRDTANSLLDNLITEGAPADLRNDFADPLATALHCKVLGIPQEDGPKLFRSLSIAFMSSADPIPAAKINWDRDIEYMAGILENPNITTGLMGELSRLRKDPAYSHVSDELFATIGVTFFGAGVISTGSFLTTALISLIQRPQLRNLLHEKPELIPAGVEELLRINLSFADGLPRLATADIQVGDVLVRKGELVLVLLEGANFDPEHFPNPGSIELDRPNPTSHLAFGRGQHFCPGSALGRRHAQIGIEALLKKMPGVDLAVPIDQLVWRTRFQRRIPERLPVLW
T2 sequence (P9WPL5 whole entry, the tested form may be a part): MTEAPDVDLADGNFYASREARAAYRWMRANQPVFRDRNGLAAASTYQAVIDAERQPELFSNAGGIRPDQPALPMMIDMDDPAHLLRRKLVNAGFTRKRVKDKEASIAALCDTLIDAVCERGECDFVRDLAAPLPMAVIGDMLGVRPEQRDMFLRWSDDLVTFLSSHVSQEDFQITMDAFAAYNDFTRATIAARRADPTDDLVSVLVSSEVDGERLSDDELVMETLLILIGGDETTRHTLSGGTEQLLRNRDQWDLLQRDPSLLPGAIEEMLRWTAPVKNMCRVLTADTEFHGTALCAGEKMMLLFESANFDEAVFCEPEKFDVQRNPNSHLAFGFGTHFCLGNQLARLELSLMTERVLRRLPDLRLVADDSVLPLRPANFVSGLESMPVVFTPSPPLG
T1 sequence (P9WPP1 whole entry, the tested form may be a part): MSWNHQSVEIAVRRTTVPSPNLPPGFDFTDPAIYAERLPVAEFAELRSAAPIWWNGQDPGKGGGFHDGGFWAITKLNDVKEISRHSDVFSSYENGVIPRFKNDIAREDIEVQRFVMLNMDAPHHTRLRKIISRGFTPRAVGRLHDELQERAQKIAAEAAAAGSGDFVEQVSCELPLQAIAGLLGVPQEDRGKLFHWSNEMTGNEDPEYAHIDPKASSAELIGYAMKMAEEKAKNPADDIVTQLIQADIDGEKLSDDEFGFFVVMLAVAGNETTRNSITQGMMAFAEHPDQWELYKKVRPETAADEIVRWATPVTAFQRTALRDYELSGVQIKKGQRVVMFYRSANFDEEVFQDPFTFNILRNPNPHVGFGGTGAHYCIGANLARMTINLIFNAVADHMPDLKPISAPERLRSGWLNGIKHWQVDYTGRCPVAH
Sequence of CYP126 (P9WPN9 whole entry, the tested form may be a part): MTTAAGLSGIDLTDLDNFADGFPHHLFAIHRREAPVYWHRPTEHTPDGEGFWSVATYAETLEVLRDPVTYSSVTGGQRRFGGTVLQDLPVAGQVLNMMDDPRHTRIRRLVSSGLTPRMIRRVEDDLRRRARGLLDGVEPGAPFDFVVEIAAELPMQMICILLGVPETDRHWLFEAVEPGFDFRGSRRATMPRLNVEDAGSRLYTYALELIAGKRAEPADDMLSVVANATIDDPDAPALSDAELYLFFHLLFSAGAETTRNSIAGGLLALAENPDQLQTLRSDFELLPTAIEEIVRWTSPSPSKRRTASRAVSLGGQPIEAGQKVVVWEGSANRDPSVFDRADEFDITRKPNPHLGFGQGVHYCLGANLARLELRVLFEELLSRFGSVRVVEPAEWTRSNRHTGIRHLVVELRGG
Sequence of CYP144 (P9WPL1 whole entry, the tested form may be a part): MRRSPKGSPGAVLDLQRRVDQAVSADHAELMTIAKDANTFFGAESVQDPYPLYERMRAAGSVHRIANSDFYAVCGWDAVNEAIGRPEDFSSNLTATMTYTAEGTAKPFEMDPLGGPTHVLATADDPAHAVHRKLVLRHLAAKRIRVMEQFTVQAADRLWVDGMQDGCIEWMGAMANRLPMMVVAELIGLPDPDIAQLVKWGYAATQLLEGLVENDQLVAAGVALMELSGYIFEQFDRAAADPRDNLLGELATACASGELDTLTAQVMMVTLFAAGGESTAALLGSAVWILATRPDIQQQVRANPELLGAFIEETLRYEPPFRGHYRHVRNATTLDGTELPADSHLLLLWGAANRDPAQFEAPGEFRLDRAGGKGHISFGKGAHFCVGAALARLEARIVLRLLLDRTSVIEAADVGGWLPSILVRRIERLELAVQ
Sequence of CYP143 (P9WPL3 whole entry, the tested form may be a part): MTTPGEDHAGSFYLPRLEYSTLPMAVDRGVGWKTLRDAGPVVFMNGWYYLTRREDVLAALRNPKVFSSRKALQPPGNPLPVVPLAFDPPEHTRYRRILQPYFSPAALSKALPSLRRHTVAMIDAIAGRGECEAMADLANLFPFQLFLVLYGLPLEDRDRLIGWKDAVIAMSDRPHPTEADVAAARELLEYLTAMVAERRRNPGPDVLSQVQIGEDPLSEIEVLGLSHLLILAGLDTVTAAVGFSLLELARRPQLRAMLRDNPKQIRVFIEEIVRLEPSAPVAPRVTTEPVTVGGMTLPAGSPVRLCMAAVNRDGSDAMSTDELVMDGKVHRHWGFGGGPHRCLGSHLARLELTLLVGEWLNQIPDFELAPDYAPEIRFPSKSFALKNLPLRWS
Sequence of CYP124 (P9WPP3 whole entry, the tested form may be a part): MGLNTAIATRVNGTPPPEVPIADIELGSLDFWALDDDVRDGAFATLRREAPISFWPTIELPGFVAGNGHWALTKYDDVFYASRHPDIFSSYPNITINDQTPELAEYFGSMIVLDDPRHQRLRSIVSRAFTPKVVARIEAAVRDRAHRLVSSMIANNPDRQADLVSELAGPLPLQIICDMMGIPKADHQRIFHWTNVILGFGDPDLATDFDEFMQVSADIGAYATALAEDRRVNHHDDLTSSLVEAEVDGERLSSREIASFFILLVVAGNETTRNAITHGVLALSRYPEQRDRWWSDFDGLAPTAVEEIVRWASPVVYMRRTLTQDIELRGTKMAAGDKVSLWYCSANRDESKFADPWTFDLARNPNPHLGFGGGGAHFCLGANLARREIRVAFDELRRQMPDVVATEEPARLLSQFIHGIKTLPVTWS

SMILES | Kd (CYP125 [4]) [µM] | Δλmax (nm) CYP125, fragment screen (CYP125 [1]) [nm] | Δλmax (nm) CYP143, fragment screen (CYP143) [nm] | Δλmax (nm) CYP121, fragment screen (CYP121) [nm] | Δλmax (nm) CYP144, fragment screen (CYP144) [nm] | Δλmax (nm) CYP142, fragment screen (CYP142 [3]) [nm] | Δλmax (nm) CYP124, fragment screen (CYP124) [nm] | Δλmax (nm) CYP126, fragment screen (CYP126) [nm] | also measured
CC(=O)Nc1ccc(Cc2ccncc2)cc1 [3f, N-(4-(Pyridin-4-ylmethyl)phenyl)acetamide] | 18 ± 0.56 |  |  |  |  |  |  |  | CYP125 Δλmax (nm) LS (CYP125 [1]; compound 100 µM, P450 5 µM): 13 nm; Kd (CYP142 [2]): 1.4 ± 0.36 µM; CYP142 Δλmax (nm) (CYP142 [3]): 2 nm
COc1ccc(CNc2cccc(Cc3ccncc3)c2)cc1 [5l, N-(4-Methoxybenzyl)-3-(pyridin-4-ylmethyl)aniline] | 6.4 ± 1.1 |  |  |  |  |  |  |  | IC50 (Mtb H37Rv [5]; [10]): 0.59 µM; IC50 (Mtb H37Rv [5]; [11]): 2.3 µM; IC50 (CYP125 [6]): 18 ± 1.9 µM; Ki (CYP125 [6]): 5.4 µM; MIC99 (Mtb H37Rv [7]): 19 µM (≈ 5.78 µg/mL)
O=C(NCc1ccc2[nH]ccc2c1)c1cccc(Cc2ccncc2)c1 [5e, N-((1H-Indol-5-yl)methyl)-3-(pyridin-4-ylmethyl)benzamide] | 4 ± 0.36 |  |  |  |  |  |  |  | IC50 (Mtb H37Rv [5]; [10]): 2.3 µM; IC50 (Mtb H37Rv [5]; [11]): 19 µM; IC50 (Mtb CDC1551 [8]; [12]): 0.07 µM; IC50 (Mtb CDC1551 [8]; [13]): 19 µM; MIC99 (Mtb CDC1551 [9]): 6.3 µM (≈ 2.15 µg/mL); IC50 (CYP125 [6]): 9.2 ± 0.89 µM; Ki (CYP125 [6]): 2.7 µM; MIC99 (Mtb H37Rv [7]): 13 µM (≈ 4.44 µg/mL)
CS(=O)(=O)c1cccc(CNc2ccc(Cc3ccncc3)cc2)c1 [5p, N-(3-(Methylsulfonyl)benzyl)-4-(pyridin-4-ylmethyl)aniline] | 0.35 ± 0.19 |  |  |  |  |  |  |  | IC50 (Mtb H37Rv [5]; [10]): 1.2 µM; IC50 (Mtb H37Rv [5]; [11]): 4.7 µM; IC50 (Mtb CDC1551 [8]; [12]): 2.3 µM; IC50 (Mtb CDC1551 [8]; [13]): 19 µM; MIC99 (Mtb CDC1551 [9]): 13 µM (≈ 4.58 µg/mL); IC50 (CYP125 [6]): 10 ± 0.95 µM; Ki (CYP125 [6]): 3.1 µM; MIC99 (Mtb H37Rv [7]): 13 µM (≈ 4.58 µg/mL)
c1ccc(Cc2ccncc2)cc1 [1a] | 180 ± 6.7 |  |  |  |  |  |  |  | CYP125 Δλmax (nm) HS (CYP125 [1]; compound 100 µM, P450 5 µM, high spin population, '-' = no HS maxima present): 2 nm; CYP125 Δλmax (nm) LS (CYP125 [1]; compound 100 µM, P450 5 µM): 27 nm
CS(=O)(=O)Nc1ccc(Cc2ccncc2)cc1 [3g] | 0.23 ± 0.04 |  |  |  |  |  |  |  | CYP125 Δλmax (nm) LS (CYP125 [1]; compound 100 µM, P450 5 µM): 30 nm; CYP125 LS/HS (CYP125 [1]; compound 100 µM, P450 5 µM, ratio of low spin to high spin CYP125): 2.7; Kd (CYP142 [2]): 1.1 ± 0.14 µM; CYP142 Δλmax (nm) (CYP142 [3]): 0 nm
N#Cc1ccncc1 [compound 41] |  | 0 | -0.5 | 0 | 0 | 0 | 0 | 0 | 
O=C(O)c1cncc(F)c1 [compound 60] |  | 0 | 1 | 0 | 0 | 0 | 0 | 0 | 
O=c1ccc(Br)c[nH]1 [compound 58] |  | 0 | 0.5 | 0 | 0 | 0 | 0 | -1 | 
OB(O)c1ccccc1 [compound 33] |  | 0 | 4 | 0 | 0 | 0 | 0 | 0 | 
Cc1ccc(S(N)(=O)=O)nc1 [compound 80] |  | 0 | 0 | 0 | 0 | 0 | 0 | 0 | 
Cc1cc(O)nnc1O [compound 24] |  | 0 | 0 | -1 | 0 | 0 | 0 | 0 | 
Clc1nccc2ccccc12 [compound 56] |  | 0 | -0.5 | -2 | 0 | 0 | 0 | 0 | 
c1ccc(-c2ncc[nH]2)cc1 [compound 4] |  | 0 | 0 | 0 | 0 | 0 | 0 | 0 | 
Nc1cccc(Cn2cncn2)c1 [compound 5] |  | 0 | 1 | 2 | 0 | 1.5 | 1 | 0 | 
CCc1nc(C)c[nH]1 [compound 67] |  | 0 | 0 | -1 | 0 | 0 | 0 | 0 | 
O=C(Nc1ccc(Nc2ccncc2)cc1)c1ccccc1 [5b, N-(4-(Pyridin-4-ylamino)phenyl)benzamide] | 11 ± 1.8 |  |  |  |  |  |  |  | Kd (CYP142 [2]): 2.83 ± 0.001 µM
O=C(NCc1ccc2[nH]ccc2c1)c1cccc(Nc2ccncc2)c1 [5g, N-((1H-Indol-5-yl)methyl)-3-(pyridin-4-ylamino)benzamide] | 3.8 ± 0.18 |  |  |  |  |  |  |  | IC50 (Mtb H37Rv [5]; [10]): < 5 µM; IC50 (Mtb H37Rv [5]; [11]): 9.4 µM; IC50 (Mtb H37Rv [5]; 1 week post-compound treatment, read-out: ATP-IC50 (W1) H37Rv, cholesterol): 4.7 µM; IC50 (Mtb CDC1551 [8]; [12]): 9.4 µM; IC50 (Mtb CDC1551 [8]; [13]): 38 µM; MIC99 (Mtb CDC1551 [9]): 25 µM (≈ 8.56 µg/mL); IC50 (CYP125 [6]): 25 ± 2.4 µM; Ki (CYP125 [6]): 7.1 µM; MIC99 (Mtb H37Rv [7]): 13 µM (≈ 4.45 µg/mL)
OCc1ccc(-c2ccncc2)cc1 [compound 8] |  | 25 | 1 | 1 | 0 | 0 | 1 | 3 | 
